From US11266643B2, “Triaryl compounds for treatment of PD-L1 diseases” (CHEMOCENTRYX, INC., priority 2019, dated 2022)

Molecular target: human PD-L1 (Homo sapiens (Human), UniProt Q9NZQ7)
Experiment: Enzyme-Linked Immunosorbent Assay (ELISA), PD-1/PD-L1 binding
Conditions: human PD-1/PD-L1 ELISA, plates coated with human PD-L1
Method: 96 Well plates were coated with […] of human PD-L1 (obtained from R&D) in PBS overnight at 4° C. The wells were then blocked with 2% BSA in PBS (W/V) with 0.05% TWEEN-20 for 1 hour at 37° C. The plates were washed 3 times with PBS/0.05% TWEEN-20 and the compounds were serial diluted (1:5) in dilution medium and added to the ELISA plates. Human PD-1 […] 0.31 μg/mL (ACRO Biosystems) were added and incubated for 1 hour at 37° C. then washed 3 times with PBS/0.05% TWEEN-20. A second block was performed with 2% BSA in PBS (W/V)/0.05% TWEEN-20 for 10 min at 37° C. and the plates were washed 3 times with PBS/0.05% TWEEN-20. Streptavidin-HRP was added for 1 hour at 37° C. then the plates were washed 3 times with PBS/0.05% TWEEN-20. TMB substrate was added and reacted for 20 min at 37° C. A stop solution (2 N aqueous H2SO4) was added. The absorbance was read at 450 nm using a micro-plate spectrophotometer.
Using the methods described in the Examples above, the compounds in Table 2 were prepared & tested for biological activity using the ELISA method described above.

Chain of human PD-L1 (Q9NZQ7 19-239): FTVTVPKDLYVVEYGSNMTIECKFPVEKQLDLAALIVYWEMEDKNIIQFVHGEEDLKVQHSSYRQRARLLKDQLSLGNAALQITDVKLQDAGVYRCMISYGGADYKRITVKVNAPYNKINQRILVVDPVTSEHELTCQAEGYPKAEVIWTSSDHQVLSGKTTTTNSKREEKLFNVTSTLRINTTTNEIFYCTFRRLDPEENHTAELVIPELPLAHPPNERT

Row | SMILES | IC50
1 | COc1cc(-c2cccc(-c3cccc(NC(=O)c4nn(C)c(=O)n(C)c4=O)c3C)c2C)cc(F)c1CNCCCC(N)=O [Example 1.062] | < 10 nM
2 | COc1cc(-c2cccc(-c3cccc(NC(=O)c4cncn(C)c4=O)c3C)c2C)cc(F)c1CN[C@@H]1CCOC[C@@H]1O [Example 1.066] | < 10 nM
3 | COc1cc(-c2cccc(-c3cccc(NC(=O)c4cn(C)c(=O)n(C)c4=O)c3C)c2C)cc(F)c1CNCC1CCNC(=O)C1 (centres unmarked) [Example 1.067] | < 10 nM
4 | COc1cc(-c2cccc(-c3cccc(NC(=O)c4c[nH]c(=O)n(C)c4=O)c3C)c2C)cc(F)c1CNCC1CCNC(=O)C1 (centres unmarked) [Example 1.071] | < 10 nM
5 | COc1cc(-c2cccc(-c3cccc(NC(=O)c4cn(C)c(=O)n(C)c4=O)c3C)c2C)cc(F)c1CN[C@H]1COC[C@@H]1O [Example 1.072] | < 10 nM
6 | COc1cc(-c2cccc(-c3cccc(NC(=O)c4c[nH]c(=O)n(C)c4=O)c3C)c2C)cc(F)c1CN(C)[C@@H]1CNC(=O)C1 [Example 1.073] | 10 to 1000 nM
7 | COc1cc(-c2cccc(-c3cccc(NC(=O)c4cccn(C)c4=O)c3C)c2C)cc(F)c1CN(C)[C@@H]1CNC(=O)C1 [Example 1.074] | 10 to 1000 nM
8 | COc1cc(-c2cccc(-c3cccc(NC(=O)c4c[nH]c(=O)n(C)c4=O)c3C)c2C)cc(F)c1CN[C@@H]1COC[C@H]1O [Example 1.078] | < 10 nM
9 | COc1cc(-c2cccc(-c3cccc(NC(=O)c4c[nH]c(=O)n(C)c4=O)c3C)c2C)cc(F)c1CN[C@H]1COC[C@@H]1O [Example 1.079] | < 10 nM
10 | COc1cc(-c2cccc(-c3cccc(NC(=O)c4cn(C)c(=O)n(C)c4=O)c3C)c2C)cc(F)c1CNCC(C)(C)C(N)=O [Example 1.080] | < 10 nM
11 | COc1cc(-c2cccc(-c3cccc(NC(=O)c4cn(C)c(=O)n(C)c4=O)c3C)c2C)cc(F)c1CNCCCC(N)=O [Example 1.081] | < 10 nM
12 | COc1cc(-c2cccc(-c3cccc(NC(=O)c4cn(C)c(=O)n(C)c4=O)c3C)c2C)cc(F)c1CNCCC1CNC(=O)C1 (centres unmarked) [Example 1.082] | < 10 nM
13 | COc1cc(-c2cccc(-c3cccc(NC(=O)c4c[nH]c(=O)n(C)c4=O)c3C)c2C)cc(F)c1CNCCCC(N)=O [Example 1.083] | < 10 nM
14 | COc1cc(-c2cccc(-c3cccc(NC(=O)c4cncn(C)c4=O)c3C)c2C)cc(F)c1CN(C)[C@@H]1CNC(=O)C1 [Example 1.084] | 10 to 1000 nM
15 | COc1cc(-c2cccc(-c3cccc(NC(=O)c4c[nH]c(=O)n(C)c4=O)c3C)c2C)cc(F)c1CNCC(C)(C)C(N)=O [Example 1.085] | < 10 nM
16 | COc1cc(-c2cccc(-c3cccc(NC(=O)c4c[nH]c(=O)n(C)c4=O)c3C)c2C)cc(F)c1CNCCC1CNC(=O)C1 (centres unmarked) [Example 1.086] | < 10 nM
17 | COc1cc(-c2cccc(-c3cccc(NC(=O)c4cncn(C)c4=O)c3C)c2C)cc(F)c1CNC1CCOCC1 [Example 1.087] | < 10 nM
18 | COc1cc(-c2cccc(-c3cccc(NC(=O)c4cncn(C)c4=O)c3C)c2C)cc(F)c1CNCCC(N)=O [Example 1.091] | < 10 nM
19 | COc1cc(-c2cccc(-c3cccc(NC(=O)c4cn(C)c(=O)n(C)c4=O)c3C)c2C)cc(F)c1CNC1CCNC(=O)C1 (centres unmarked) [Example 1.093] | < 10 nM

Row | SMILES | IC50
20 | COc1cc(-c2cccc(-c3cccc(NC(=O)c4c[nH]c(=O)n(C)c4=O)c3C)c2C)cc(F)c1CN[C@@H]1CCC(=O)NC1 [Example 1.094] | < 10 nM
21 | COc1cc(-c2cccc(-c3cccc(NC(=O)c4cn(C)c(=O)n(C)c4=O)c3C)c2C)cc(F)c1CNCC1CCCNC1=O (centres unmarked) [Example 1.095] | < 10 nM
22 | COc1cc(-c2cccc(-c3cccc(NC(=O)c4c[nH]c(=O)n(C)c4=O)c3C)c2C)cc(F)c1CNC1CCNC(=O)C1 (centres unmarked) [Example 1.096] | < 10 nM
23 | COc1cc(-c2cccc(-c3cccc(NC(=O)c4cccn(C)c4=O)c3C)c2C)cc(F)c1CNCc1c[nH]c(=O)[nH]c1=O [Example 1.097] | < 10 nM
24 | COc1cc(-c2cccc(-c3cccc(NC(=O)c4cncn(C)c4=O)c3C)c2C)cc(F)c1CNCC1CCCNC1=O (centres unmarked) [Example 1.098] | < 10 nM
25 | COc1cc(-c2cccc(-c3cccc(NC(=O)c4cncn(C)c4=O)c3C)c2C)cc(F)c1CNCCN1CCCC1=O [Example 1.099] | < 10 nM
26 | COc1cc(-c2cccc(-c3cccc(NC(=O)c4c[nH]c(=O)n(C)c4=O)c3C)c2C)cc(F)c1CNCC1CCCNC1=O (centres unmarked) [Example 1.100] | < 10 nM
27 | COc1cc(-c2cccc(-c3cccc(Nc4nccc5nccnc45)c3C)c2C)cc(F)c1CNCc1c[nH]c(=O)[nH]c1=O [Example 1.101] | 10 to 1000 nM
28 | COc1cc(-c2cccc(-c3cccc(NC(=O)c4cncn(C)c4=O)c3C)c2C)cc(F)c1CN[C@@H]1CCC(=O)NC1 [Example 1.102] | < 10 nM
29 | COc1cc(-c2cccc(-c3cccc(NC(=O)c4cncn(C)c4=O)c3C)c2C)cc(F)c1CNC1CCNC(=O)C1 (centres unmarked) [Example 1.103] | < 10 nM
30 | COc1cc(-c2cccc(-c3cccc(NC(=O)c4cn(C)c(=O)n(C)c4=O)c3C)c2C)cc(F)c1CN[C@@H]1CCC(=O)NC1 [Example 1.107] | < 10 nM
31 | COc1cc(-c2cccc(-c3cccc(NC(=O)c4c[nH]c(=O)n(C)c4=O)c3C)c2C)cc(F)c1CNCC[C@@H]1CCC(=O)N1 [Example 1.109] | < 10 nM
32 | COc1cc(-c2cccc(-c3cccc(NC(=O)c4cn(C)c(=O)n(C)c4=O)c3C)c2C)cc(F)c1CN[C@H]1CCC(=O)NC1 [Example 1.110] | < 10 nM
33 | COc1cc(-c2cccc(-c3cccc(NC(=O)c4c[nH]c(=O)n(C)c4=O)c3C)c2C)cc(F)c1CN[C@@H]1CCOC[C@@H]1O [Example 1.111] | < 10 nM
34 | COc1cc(-c2cccc(-c3cccc(NC(=O)c4cn(C)c(=O)n(C)c4=O)c3C)c2C)cc(F)c1CNCc1ccnn1C [Example 1.112] | 10 to 1000 nM
35 | COc1cc(-c2cccc(-c3cccc(NC(=O)c4cncn(C)c4=O)c3C)c2C)cc(F)c1CNCc1c[nH]c(=O)[nH]c1=O [Example 1.113] | < 10 nM
36 | COc1cc(-c2cccc(-c3cccc(NC(=O)c4cn(C)c(=O)n(C)c4=O)c3C)c2C)cc(F)c1CNCCC(N)=O [Example 1.114] | < 10 nM
37 | COc1cc(-c2cccc(-c3cccc(Nc4nccc5nccnc45)c3C)c2C)cc(F)c1CNCc1ccn[nH]1 [Example 1.116] | 10 to 1000 nM
38 | COc1cc(-c2cccc(-c3cccc(NC(=O)c4cccn(C)c4=O)c3C)c2C)cc(F)c1CN[C@@H]1CCC[C@H]1O [Example 1.117] | < 10 nM

Second part, the compound after the results:

Row | IC50 | SMILES
39 | 10 to 1000 nM | COc1cc(-c2cccc(-c3cccc(NC(=O)c4nn(C)c(=O)n(C)c4=O)c3C)c2C)cc(F)c1CN[C@H]1CCCNC1=O [Example 1.060]
40 | < 10 nM | COc1cc(-c2cccc(-c3cccc(NC(=O)c4nn(C)c(=O)n(C)c4=O)c3C)c2C)cc(F)c1CNCC(C)(C)C(N)=O [Example 1.063]
41 | < 10 nM | COc1cc(-c2cccc(-c3cccc(NC(=O)c4nn(C)c(=O)n(C)c4=O)c3C)c2C)cc(F)c1CNCC(N)=O [Example 1.064]
42 | < 10 nM | COc1cc(-c2cccc(-c3cccc(NC(=O)c4nn(C)c(=O)n(C)c4=O)c3C)c2C)cc(F)c1CNC(C)C [Example 1.065]
43 | < 10 nM | COc1cc(-c2cccc(-c3cccc(NC(=O)c4nn(C)c(=O)n(C)c4=O)c3C)c2C)cc(F)c1CNC[C@H]1CCC(=O)N1 [Example 1.068]
44 | < 10 nM | COc1cc(-c2cccc(-c3cccc(NC(=O)c4nn(C)c(=O)n(C)c4=O)c3C)c2C)cc(F)c1CN[C@@H]1CCC(=O)NC1 [Example 1.069]
45 | < 10 nM | COc1cc(-c2cccc(-c3cccc(NC(=O)c4nn(C)c(=O)n(C)c4=O)c3C)c2C)cc(F)c1CN[C@H]1CNC(=O)C1 [Example 1.070]
46 | < 10 nM | COc1cc(-c2cccc(-c3cccc(NC(=O)c4nn(C)c(=O)n(C)c4=O)c3C)c2C)cc(F)c1CN[C@@H]1CCOC[C@@H]1O [Example 1.076]
47 | < 10 nM | COc1cc(-c2cccc(-c3cccc(NC(=O)c4nn(C)c(=O)n(C)c4=O)c3C)c2C)cc(F)c1CN(C)C[C@@H]1CCC(=O)N1 [Example 1.077]
48 | < 10 nM | COc1cc(-c2cccc(-c3cccc(NC(=O)c4nn(C)c(=O)n(C)c4=O)c3C)c2C)cc(F)c1CNCC[C@@H]1CCC(=O)N1 [Example 1.088]
49 | < 10 nM | COc1cc(-c2cccc(-c3cccc(NC(=O)c4nn(C)c(=O)n(C)c4=O)c3C)c2C)cc(F)c1CN[C@H]1CCC(=O)NC1 [Example 1.089]
50 | < 10 nM | COc1cc(-c2cccc(-c3cccc(NC(=O)c4nn(C)c(=O)n(C)c4=O)c3C)c2C)cc(F)c1CNCCC(N)=O [Example 1.090]
51 | < 10 nM | COc1cc(-c2cccc(-c3cccc(NC(=O)c4nn(C)c(=O)n(C)c4=O)c3C)c2C)cc(F)c1CNCCN1CCCC1=O [Example 1.092]
52 | < 10 nM | COc1cc(-c2cccc(-c3cccc(NC(=O)c4nn(C)c(=O)n(C)c4=O)c3C)c2C)cc(F)c1CNC[C@@H]1CCC(=O)N1 [Example 1.104]
53 | < 10 nM | COc1cc(-c2cccc(-c3cccc(NC(=O)c4nn(C)c(=O)n(C)c4=O)c3C)c2C)cc(F)c1CN[C@@H]1CNC(=O)C1 [Example 1.105]
54 | < 10 nM | COc1cc(-c2cccc(-c3cccc(NC(=O)c4nn(C)c(=O)n(C)c4=O)c3C)c2C)cc(F)c1CNCCC1CCC(=O)N1 (centres unmarked) [Example 1.106]
55 | < 10 nM | COc1cc(-c2cccc(-c3cccc(NC(=O)c4cn(C)c(=O)n(C)c4=O)c3C)c2C)cc(F)c1CNCC[C@@H]1CCC(=O)N1 [Example 1.108]
56 | < 10 nM | COc1cc(-c2cccc(-c3cccc(NC(=O)c4cn(C)c(=O)n(C)c4=O)c3C)c2C)cc(F)c1CNCCC1CCC(=O)N1 (centres unmarked) [Example 1.115]
